Test results: the NIST ThermoML archive (doi:10.1021/acs.jced.8b00854)
Where “and” joins values, the source holds several entries; their conditions need not be identical. Equal entries are not always repeated. Numbers after ± are expanded uncertainties.

Assays:
[1] = refractive index (Na D-line) (dimensionless); settings: 100 kPa, Liquid, Standard Abbe refractometry
[2] = 100 kPa, Liquid, Vibrating tube method
[3] = refractive index (Na D-line) (dimensionless); xn = mol fraction of the nth substance listed; settings: 100 kPa, Liquid, Standard Abbe refractometry, x2 = 0
[4] = xn = mol fraction of the nth substance listed; settings: 100 kPa, Liquid, Vibrating tube method, x2 = 0

Row | SMILES | refractive index ([1]; 293.15 K) | refractive index ([1]; 303.15 K) | refractive index ([1]; 313.15 K) | refractive index ([1]; 323.15 K) | refractive index ([1]; 333.15 K) | refractive index ([1]; 343.15 K) | mass density ([2]; 323.15 K) [kg/m3] | mass density ([2]; 333.15 K) | mass density ([2]; 343.15 K) [kg/m3] | refractive index ([3]; 293.15 K) | refractive index ([3]; 303.15 K) | refractive index ([3]; 313.15 K) | refractive index ([3]; 323.15 K) | refractive index ([3]; 333.15 K) | refractive index ([3]; 343.15 K) | mass density ([4]; 323.15 K) [kg/m3] | mass density ([4]; 333.15 K) [kg/m3] | mass density ([4]; 343.15 K) [kg/m3]
1 | O [water] | 1.3335 ± 0.0016 | 1.3315 ± 0.0016 | 1.3305 ± 0.0016 | 1.329 ± 0.0016 | 1.3275 ± 0.0016 | 1.326 ± 0.0016 | 988.04 ± 2 | 981.56 ± 2 kg/m3 and 988.04 ± 2 kg/m3 | 972.75 ± 2 |  |  |  |  |  |  |  |  | 
2 | O [water] + CCCCCCCCOS(=O)(=O)[O-].CCCCn1cc[n+](C)c1 |  |  |  |  |  |  |  |  |  | 1.3335 ± 0.0016 | 1.3315 ± 0.0016 | 1.3305 ± 0.0016 | 1.329 ± 0.0016 | 1.3275 ± 0.0016 | 1.326 ± 0.0016 | 988.04 ± 2 | 981.56 ± 2 | 972.75 ± 2
3 | O [water] + CCCCCCCC[n+]1ccn(C)c1.F[B-](F)(F)F |  |  |  |  |  |  |  |  |  | 1.3335 ± 0.0016 | 1.3315 ± 0.0016 | 1.3305 ± 0.0016 | 1.329 ± 0.0016 | 1.3275 ± 0.0016 | 1.326 ± 0.0016 | 988.04 ± 2 | 988.04 ± 2 | 972.75 ± 2
4 | O [water] + CCCCCCn1cc[n+](C)c1.F[B-](F)(F)F |  |  |  |  |  |  |  |  |  | 1.3335 ± 0.0016 | 1.3315 ± 0.0016 | 1.3305 ± 0.0016 | 1.329 ± 0.0016 | 1.3275 ± 0.0016 | 1.326 ± 0.0016 | 988.04 ± 2 | 981.56 ± 2 | 972.75 ± 2
5 | O [water] + CCCCn1cc[n+](C)c1.F[B-](F)(F)F |  |  |  |  |  |  |  |  |  | 1.3335 ± 0.0016 | 1.3315 ± 0.0016 | 1.3305 ± 0.0016 | 1.329 ± 0.0016 | 1.3275 ± 0.0016 | 1.326 ± 0.0016 | 988.04 ± 2 | 981.56 ± 2 | 972.75 ± 2
6 | O [water] + CCCCn1cc[n+](C)c1.O=S(=O)([O-])C(F)(F)F |  |  |  |  |  |  |  |  |  | 1.3335 ± 0.0016 | 1.3315 ± 0.0016 | 1.3305 ± 0.0016 | 1.329 ± 0.0016 | 1.3275 ± 0.0016 | 1.326 ± 0.0016 | 988.04 ± 2 | 981.56 ± 2 | 972.75 ± 2
7 | O [water] + CCn1cc[n+](C)c1.F[B-](F)(F)F |  |  |  |  |  |  |  |  |  | 1.3335 ± 0.0016 | 1.3315 ± 0.0016 | 1.3305 ± 0.0016 | 1.329 ± 0.0016 | 1.3275 ± 0.0016 | 1.326 ± 0.0016 | 988.04 ± 2 | 981.56 ± 2 | 972.75 ± 2
8 | O [water] + CCn1cc[n+](C)c1.O=S(=O)([O-])C(F)(F)F |  |  |  |  |  |  |  |  |  | 1.3335 ± 0.0016 | 1.3315 ± 0.0016 | 1.3305 ± 0.0016 | 1.329 ± 0.0016 | 1.3275 ± 0.0016 | 1.326 ± 0.0016 | 988.04 ± 2 | 981.56 ± 2 | 972.75 ± 2
